Target: T1, glutaminase (GAC) (Homo sapiens, UniProt O94925)
T1 sequence (O94925 55-598 isoform O94925-3 limits assumed): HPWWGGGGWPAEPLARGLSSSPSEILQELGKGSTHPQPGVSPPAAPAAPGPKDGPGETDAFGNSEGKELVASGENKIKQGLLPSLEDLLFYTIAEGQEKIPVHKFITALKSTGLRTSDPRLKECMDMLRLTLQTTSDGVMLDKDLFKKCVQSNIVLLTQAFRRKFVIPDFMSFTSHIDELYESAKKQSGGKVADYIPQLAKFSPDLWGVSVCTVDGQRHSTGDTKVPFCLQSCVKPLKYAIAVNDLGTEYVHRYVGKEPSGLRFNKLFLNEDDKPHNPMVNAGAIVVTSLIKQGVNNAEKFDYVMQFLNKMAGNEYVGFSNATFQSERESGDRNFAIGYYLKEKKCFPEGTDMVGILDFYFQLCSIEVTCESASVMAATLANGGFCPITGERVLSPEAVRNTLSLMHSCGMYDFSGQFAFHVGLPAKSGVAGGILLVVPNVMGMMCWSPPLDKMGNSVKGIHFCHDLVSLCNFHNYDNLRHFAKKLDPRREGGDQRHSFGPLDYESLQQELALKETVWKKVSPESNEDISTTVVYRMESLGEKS
Assay: Glutaminase coupled endpoint enzymatic assay (Example A)
Assay type: biochemical
Conditions: inhibition of glutaminase; assay of Example A or Example B
Method in brief: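 Endpoint coupled assay: glutamate formed by GAC drives GDH NADH production, recycled by diaphorase reducing resazurin to fluorescent resorufin (Ex544/Em590) after SDS stop. Buffer pH 8.5 with phosphate; glutamine at Km; enzyme preincubated with compound 60 min at room temperature.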

Row | IC50 [nM] | Compound
1 | < 100 | CC(=O)Nc1nnc([C@H]2CCC[C@H](c3nnc(NC(=O)Cc4cccc(N5CC(F)(F)C5)n4)s3)C2)s1 [Compound 281, N-(5-((1S,3S)-3-(5-acetamido-1,3,4-thiadiazol-2-yl)cyclohexyl)-1,3,4-thiadiazol-2-yl)-2-(6-(3,3-difluoroazetidin-1-yl)pyridin-2-yl)acetamide]
2 | < 100 | CCC(=O)Nc1nnc([C@H]2CCC[C@H](c3nnc(NC(=O)Cc4cccc(N5CC(F)(F)C5)n4)s3)C2)s1 [Compound 282, N-(5-((1S,3S)-3-(5-(2-(6-(3,3-difluoroazetidin-1-yl)pyridin-2-yl)acetamido)-1,3,4-thiadiazol-2-yl)cyclohexyl)-1,3,4-thiadiazol-2-yl)propionamide]
3 | 100 to 500 | O=C(Cc1cccc(N2CC(F)(F)C2)n1)Nc1nnc([C@H]2CCC[C@H](c3nnc(NC(=O)C4CC4)s3)C2)s1 [Compound 283]
4 | < 100 | COc1ccccc1CC(=O)Nc1nnc([C@H]2CC[C@H](c3nnc(NC(=O)Cc4ccccc4OC)s3)C2)s1 [Compound 284, N,N′-(5,5′-((1S,3S)-cyclopentane-1,3-diyl)bis(1,3,4-thiadiazole-5,2-diyl))bis(2-(2-methoxyphenyl)acetamide)]
5 | < 100 | CN(C)c1cccc(CC(=O)Nc2nnc([C@H]3CC[C@H](c4nnc(NC(=O)Cc5cccc(N(C)C)c5)s4)C3)s2)c1 [Compound 285, N,N′-(5,5′-((1S,3S)-cyclopentane-1,3-diyl)bis(1,3,4-thiadiazole-5,2-diyl))bis(2-(3-(dimethylamino)phenyl)acetamide)]
6 | < 100 | COc1ccc(CC(=O)Nc2nnc([C@H]3CC[C@H](c4nnc(NC(=O)Cc5ccc(OC)nc5)s4)C3)s2)cn1 [Compound 286, N,N′-(5,5′-((1S,3S)-cyclopentane-1,3-diyl)bis(1,3,4-thiadiazole-5,2-diyl))bis(2-(6-methoxypyridin-3-yl)acetamide)]
7 | < 100 | COc1ccnc(CC(=O)Nc2nnc([C@H]3CC[C@H](c4nnc(NC(=O)Cc5cc(OC)ccn5)s4)C3)s2)c1 [Compound 287]
8 | < 100 | O=C(Cc1cccc(N2CC(F)(F)C2)n1)Nc1nnc([C@H]2CC[C@H](c3nnc(NC(=O)Cc4cccc(N5CC(F)(F)C5)n4)s3)C2)s1 [Compound 288, N,N′-(5,5′-((1S,3S)-cyclopentane-1,3-diyl)bis(1,3,4-thiadiazole-5,2-diyl))bis(2-(6-(3,3-difluoroazetidin-1-yl)pyridin-2-yl)acetamide)]
9 | 100 to 500 | CN(C)c1cccc(CC(=O)Nc2nnc([C@H]3CC[C@H](c4nnc(NC(=O)Cc5cccc(N(C)C)n5)s4)C3)s2)n1 [Compound 289, N,N′-(5,5′-((1S,3S)-cyclopentane-1,3-diyl)bis(1,3,4-thiadiazole-5,2-diyl))bis(2-(6-(dimethylamino)pyridin-2-yl)acetamide)]
10 | < 100 | O=C(Cc1ccc(C2CCNCC2)cc1)Nc1nnc([C@H]2CCC[C@H](c3nnc(NC(=O)Cc4ccc(C5CCNCC5)cc4)s3)C2)s1 [Compound 290]

— patent publication US9029531B2 (Agios Pharmaceuticals, Inc., priority 2012, dated 2015)
